As usually defined, the EC50 is the concentration that produces a half-maximal response.

In assay [1] the test system is RSV A2 strain. The assay can be described thus: In vitro CPE (CytoPathic Effect) inhibition effect evaluation test, RSV type A. The assay is classed as cell-based. An outline of the steps: (§1)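 EC50 is the concentration giving 50% inhibition of virus-induced cytopathic effect, fitted by nonlinear regression from CellTiter-Glo 2.0 viability. Compounds in 3-fold series were co-incubated at 37 °C with HEp-2 cells and RSV: A2 strain for 4 days, B (Wash/18537) for 5 days; uninfected wells served as control.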
In general terms: Protection from cytopathic effect is a common read-out in antiviral testing.

Assay [2] deals with RSV B (Wash/18537 strain). The experiment in a line: In vitro CPE (CytoPathic Effect) inhibition effect evaluation test, RSV type B. It is filed as cell-based. An outline of the steps: as §1
Setting [3] is: human respiratory syncytial virus, inhibitory effect against RSV type A (RSV A2 strain), HEp-2 cells, CPE inhibition, read-out: EC50.
Setting [4] is: human respiratory syncytial virus, inhibitory effect against RSV type B, CPE inhibition, read-out: EC50.

Like-named read-outs stand apart in the source and are kept apart here.

On to `CC(F)(F)c1nc(N2CC3(CCOCC3)c3cc(O[C@H]4CC[C@@H](N5CC(F)(F)C5)CC4)ccc32)ncc1C(=O)NC1(C(=O)O)C2CC3CC(C2)CC1C3` (stereo partly shown) [Compound I-586], for which the EC50 in assay [1] (setting [3]) and in assay [2] (setting [4]) was under 0.01 µM in each case.
`O=C(NC1(C(=O)O)C2CC3CC(C2)CC1C3)c1cnc(N2CC3(CCCCC3)c3cc(O[C@H]4CC[C@@H](N5CC(F)(F)C5)CC4)ccc32)nc1C(F)(F)F` (stereo partly shown) [Compound I-500]: the EC50 in assay [1] (setting [3]) and in assay [2] (setting [4]) was under 0.01 µM in each case.
Turning to `COC[C@H](C)n1cc(-c2ncc(C(=O)NC3(C(=O)O)C4CC5CC(C4)CC3C5)c(C(F)(F)F)n2)c2ccc(O[C@H]3CC[C@H](N4CC(F)(F)C4)CC3)cc21` (stereo partly shown) [Compound I-508], the EC50 in assay [1] (setting [3]) and in assay [2] (setting [4]) was under 0.01 µM in each case.
`N#CCCCCOc1ccc2c(c1)CCN2c1ncc(C(=O)NC2(C(=O)O)CCCCC2)c(C(F)(F)F)n1` [Compound I-5]: the values for the EC50 in assay [1] (setting [3]) and in assay [2] (setting [4]) were 0.01 to 0.1 µM and 0.1 to 5 µM, respectively.
On to `Cc1nc(-c2cn(C3CCOCC3)c3cc(OC4CCN(c5ncccn5)CC4)ccc23)nc(C(F)(F)F)c1C(=O)NC1(C(=O)O)C2CC3CC(C2)CC1C3` (stereo not shown) [Compound I-245], for which the EC50 in assay [1] (setting [3]) and in assay [2] (setting [4]) was under 0.01 µM each time.
`Cc1nc(N2CCc3cc(OCCC4CCOCC4)ccc32)nc(C(F)(F)F)c1C(=O)NC1(C(=O)O)CCCCC1` [Compound I-72]: the EC50 is under 0.01 µM in assay [1] (setting [3]) and 0.1 to 5 µM in assay [2] (setting [4]).
The like results for `CCC(CC)n1cc(-c2ccc(C(=O)NC3(C(=O)O)C4CC5CC(C4)CC3C5)c(C(F)(F)F)n2)c2ccc(O[C@H]3CC[C@H](N4CC(F)(F)C4)CC3)cc21` (stereo partly shown) [Compound I-575] were, in that order, under 0.01 µM and under 0.01 µM.
In the case of `NC(=O)C1(NC(=O)c2cnc(N3CC4(CCOCC4)c4cc(OC5CCN(c6ncccn6)CC5)ccc43)nc2C(F)(F)F)C2CC3CC(C2)CC1C3` (stereo not shown) [Compound I-135], the EC50 in assay [1] (setting [3]) is under 0.01 µM; in assay [2] (setting [4]) it was 0.01 to 0.1 µM.
For the molecule `O=C(NC1(C(=O)O)C2CC3CC(C2)CC1C3)c1ccc(-c2cn(C3CCC(F)CC3)c3cc(O[C@H]4CC[C@H](N5CC(F)(F)C5)CC4)ccc23)nc1C(F)(F)F` (single isomer, unassigned) [Compound I-579], the concentration for a half-maximal effect (EC50) in assay [1] (setting [3]) and in assay [2] (setting [4]) was under 0.01 µM throughout.
Regarding `O=C(NC1(C(=O)O)C2CC3CC(C2)CC1C3)c1cnc(N2CC3(CCOCC3)c3cc(OCCC4CCOCC4)ccc32)nc1C(F)(F)F` (stereo not shown) [Compound I-83], the half-maximal effective concentration (EC50) was under 0.01 µM in assay [1] (inhibitory effect against RSV type A (RSV A2 strain), HEp-2 cells, CPE inhibition, read-out: EC50) and under 0.01 µM in assay [2] (inhibitory effect against RSV type B, CPE inhibition, read-out: EC50).
With `O=C(NC1(C(=O)O)C2CC3CC(C2)CC1C3)c1cnc(-c2cn(C3CCC(F)(F)CC3)c3cc(OC4CCN(C5CC(F)(F)C5)CC4)ccc23)nc1C(F)(F)F` (stereo not shown) [Compound I-249], the EC50 in assay [1] (setting [3]) is under 0.01 µM; in assay [2] (setting [4]) it was 0.01 to 0.1 µM.
Consider `O=C(NC1(C(=O)O)C2CC3CC(C2)CC1C3)c1cnc(N2CC3(CCOCC3)c3cc(OC4CCN(c5ncc(F)cn5)CC4)ccc32)nc1C(F)(F)F` (stereo not shown) [Compound I-275], for which the EC50 in assay [1] (setting [3]) and in assay [2] (setting [4]) was under 0.01 µM throughout.
In the case of `CC(F)(F)c1nc(N2CC3(CCOCC3)c3cc(O[C@@H]4CCN(CC(F)(F)F)C4)ccc32)ncc1C(=O)NC1(C(=O)O)C2CC3CC(C2)CC1C3` (stereo partly shown) [Compound I-561], the concentration for a half-maximal effect (EC50) in assay [1] (setting [3]) and in assay [2] (setting [4]) was under 0.01 µM each time.
With `CC(F)(F)c1nc(N2CC3(CCOCC3)c3cc(OC4CCN(CC#N)CC4)ccc32)ncc1C(=O)NC1(C(=O)O)C2CC3CC(C2)CC1C3` (stereo not shown) [Compound I-528], the values for the EC50 in assay [1] (setting [3]) and in assay [2] (setting [4]) were under 0.01 µM and 0.1 to 5 µM, respectively.
Turning to `O=C(NC1(C(=O)O)CCCCC1)c1cnc(N2CC3(CCOCC3)c3cc(OC4CCN(c5ncccn5)CC4)ccc32)nc1C(F)(F)F` [Compound I-81], the EC50 in assay [1] (setting [3]) and in assay [2] (setting [4]) was under 0.01 µM in each case.
For the molecule `COC[C@H](C)n1cc(-c2ncc(C(=O)NC3(C(=O)O)C4CC5CC(C4)CC3C5)c(C(C)(F)F)n2)c2ccc(O[C@H]3CC[C@H](N4CC(F)(F)C4)CC3)cc21` (stereo partly shown) [Compound I-567], the concentration for a half-maximal effect (EC50) in assay [1] (setting [3]) and in assay [2] (setting [4]) was under 0.01 µM in each case.
As for `Cn1cc2c(n1)CCC(Oc1ccc3c(c1)C1(CCOCC1)CN3c1ncc(C(=O)NC3(C(=O)O)C4CC5CC(C4)CC3C5)c(C(F)(F)F)n1)C2` (racemic) [Compound I-189], the EC50 in assay [1] (setting [3]) and in assay [2] (setting [4]) was under 0.01 µM each time.
In the case of `CC(F)(F)c1nc(N2CC3(CCCCC3)c3cc(O[C@H]4CC[C@H](n5ccnn5)CC4)ccc32)ncc1C(=O)NC1(C(=O)O)C2CC3CC(C2)CC1C3` (stereo partly shown) [Compound I-563], the EC50 in assay [1] (setting [3]) and in assay [2] (setting [4]) was under 0.01 µM throughout.
Regarding `O=C(NC1(C(=O)O)C2CC3CC(C2)CC1C3)c1cnc(-c2cn(C3CCC(F)(F)CC3)c3cc(OC4CC(N5CC(F)(F)C5)C4)ccc23)nc1C(F)(F)F` (single isomer, unassigned) [Compound I-412], the EC50 in assay [1] (setting [3]) was under 0.01 µM; in assay [2] (setting [4]), 0.01 to 0.1 µM.
For `CCC(CC)n1cc(-c2ncc(C(=O)NC3(C(=O)O)C4CC5CC(C4)CC3C5)c(C(F)(F)F)n2)c2ccc(OC3CCN(c4ncc(F)cn4)CC3)cc21` (stereo not shown) [Compound I-421], the EC50 in assay [1] (setting [3]) and in assay [2] (setting [4]) was under 0.01 µM throughout.
`O=C(NC1(C(=O)O)C2CC3CC(C2)CC1C3)c1cnc(N2CC3(CCCCC3)c3cc(OC4CCN(c5ncc(F)cn5)CC4)ncc32)nc1C(F)(F)F` (stereo not shown) [Compound I-558]: the EC50 in assay [1] (setting [3]) and in assay [2] (setting [4]) was under 0.01 µM in each case.
In the case of `CN(C)CCCc1nc(N2CCc3cc(OCCC4CCOCC4)ccc32)nc(C(F)(F)F)c1C(=O)NC1(C(=O)O)C2CC3CC(C2)CC1C3` (stereo not shown) [Compound I-160], the EC50 in assay [1] (setting [3]) was in the range of 0.01 to 0.1 µM; in assay [2] (setting [4]) it was 0.1 to 5 µM.
The like results for `O=C(NC1(C(=O)O)C2CC3CC(C2)CC1C3)c1cnc(N2CC3(CCOC3)c3cc(OCC(F)(F)F)ccc32)nc1C(F)(F)F` (racemic) [Compound I-466] were, in that order, under 0.01 µM and 0.01 to 0.1 µM.
Consider `CCC1(CC)CN(c2ncc(C(=O)NC3(C(=O)O)C4CC5CC(C4)CC3C5)c(C(C)(F)F)n2)c2ccc(O[C@H]3CC[C@H](N4CC(F)(F)C4)CC3)cc21` (stereo partly shown) [Compound I-591], for which the EC50 was 0.00061 µM in assay [1] (human respiratory syncytial virus, HEp-2, 96 h, read-out: EC50, inhibitory effect against RSV type A (CPE inhibition)) and 0.0022 µM in assay [2] (human respiratory syncytial virus, HEp-2, 120 h, HEp-2 cells, RSV B (Wash/18537 strain), 5 days, CellTiter-Glo, read-out: EC50, inhibitory effect against RSV type B (CPE inhibition)).
Turning to `O=C(NC1(C(=O)O)C2CC3CC(C2)CC1C3)c1cnc(-c2cn(C3CCC(F)(F)CC3)c3cc(OC4CCC(OC5CC5)CC4)ccc23)nc1C(F)(F)F` (single isomer, unassigned) [Compound I-478], the EC50 in assay [1] (setting [3]) and in assay [2] (setting [4]) was under 0.01 µM each time.
Consider `CC(F)(F)c1nc(N2CC3(CCOCC3)c3cc(OC4CCN(CC(F)(F)F)CC4)ncc32)ncc1C(=O)N[C@]1(C(=O)O)[C@@H]2CC3C[C@H]1C[C@@](F)(C3)C2` [Compound I-605], for which the EC50 in assay [1] (setting [3]) and in assay [2] (setting [4]) was under 0.01 µM throughout.
Take `CC(F)(F)c1nc(N2CC3(CCOCC3)c3cc(OC4CCN(CC5COC5)CC4)ccc32)ncc1C(=O)NC1(C(=O)O)C2CC3CC(C2)CC1C3` (stereo not shown) [Compound I-532]: the EC50 in assay [1] (setting [3]) was under 0.01 µM; in assay [2] (setting [4]), 0.01 to 0.1 µM.
The like results for `N#C[C@]12CC3C[C@H](C1)[C@](NC(=O)c1cnc(N4CC5(CCOCC5)c5cc(OC6CCN(c7ncccn7)CC6)ccc54)nc1C(F)(F)F)(C(=O)O)[C@@H](C3)C2` [Compound I-218] were, in that order, under 0.01 µM and under 0.01 µM.
On to `COC[C@H](C)n1cc(-c2ccc(C(=O)NC3(C(=O)O)C4CC5CC(C4)CC3C5)c(C(F)(F)F)n2)c2ccc(O[C@H]3CC[C@H](N4CC(F)(F)C4)CC3)cc21` (stereo partly shown) [Compound I-577], for which the EC50 in assay [1] (setting [3]) and in assay [2] (setting [4]) was under 0.01 µM each time.

Values taken from patent publication US12528790B2, “Amide derivative having antiviral activity” (Shionogi & Co., Ltd., priority 2020, dated 2026).
